According to patent publication US11370825B2, “Polypeptides, cells, and methods involving engineered CD16” (Regents of the University of Minnesota, priority 2014, dated 2022):

Assays:
iPSC-derived NK cells = assay: Cell surface CD16a on iPSC-derived NK cells stimulated with K562 cells, flow cytometry; type: cell-based, human; settings: iPSC-derived NK cells with K562 target cells (2:1 ratio), four hours at 37° C.
monomeric human IgG = assay: Antibody binding assay: monomeric human IgG and IgA binding to NK92 cells expressing CD16a or CD16a/S197P; settings: NK92 cells expressing the receptor; IgA 20 μg/ml
Protocol: (§1) FIG. 5. Effects of the engineered S197P mutation on CD16a function. (A) NK92 cells expressing CD16a or CD16a/S197P at equivalent levels (left panel) were treated with monomeric human IgG (0-20 μg/ml). As controls, cells were also treated with monomeric human IgA (20 μg/ml), and NK92 parent cells were treated with IgG (20 μg/ml) (bar). Antibody binding was determined by flow cytometry, as described in Materials and Methods. […] Statistical significance is indicated as *P<0.05 versus IgG (0 μg/ml), IgA, or NK92 parent cells+IgG. (B) Mock transduced NK92 cells or NK92 cells expressing CD16a or CD16a/S197P were incubated in the absence (Unstim.) or presence of Raji cells treated with or without anti-CD20 rituximab for the indicated time points at 37° C. NK92 cell activation was assessed by the up-regulation in CD107a staining by flow cytometry. For the histogram plots, the x-axis=Log 10 fluorescence and the y-axis=cell number. Data are representative of at least 3 independent experiments.
Cell binding to monomeric human IgG and IgA (Sigma-Aldrich, St. Louis, Mo.) was performed as previously described with some modifications (Dong et al., 2014, Arthritis Rheumatol. 66:1291-1299). […] The cells were washed and then immediately analyzed by flow cytometry.

ADAM17 = assay: Anti-ADAM17 mAb staining of NK92 cells expressing CD16a or CD16a/S197P, flow cytometry; type: cell-based, human; settings: NK92 cells expressing CD16a compared with CD16a/S197P; multiple anti-ADAM17 mAbs
Protocol: FIG. 4. Effects of the engineered S197P mutation on CD16a shedding in NK cells. NK92 cells transduced with empty vector (vector only), CD16a, or CD16a/S197P were treated without (Unstim.) or with PMA (100 ng/ml) for 30 minutes at 37° C. (A), with IL-12 and IL-18 (100 ng/ml and 400 ng/ml, respectively) for 24 hours at 37° C. (B), or with Raji cells and rituximab for 60 minutes at 37° C. (C). Cell surface levels of CD16a were determined by flow cytometry. Isotype-matched negative control antibody staining is indicated by a dotted line. […] Soluble CD16a levels were determined by ELISA. […] For all histogram plots, the x-axis=Log 10 fluorescence, the y-axis=cell number, and the data are representative of at least 3 independent experiments.
(§2) For cell staining, nonspecific antibody binding sites were blocked and cells were stained with the indicated antibodies and examined by flow cytometry, as previously described (Wang et al., 2013, Biochim Biophys Acta. 1833:680-685; Romee et al., 2013, Blood 121:3599-3608). […] Human CD16 was detected by the mAbs 3G8 (BioLegend, Inc., San Diego, Calif.) and DJ130c (Santa Cruz Biotech, Santa Cruz, Calif.). CD107a was detected by the mAb H4A3 (Biolegend, Inc., San Diego, Calif.). ADAM17 was detected by the mAbs M220 (Doedens et al., 2000, J Biol Chem. 275:14598-14607), 111633, and 111623 (R&D Systems, Inc., Minneapolis, Minn.). […]

NK92 cells = assay: NK92 cell activation: CD107a up-regulation on incubation with Raji cells with or without rituximab, flow cytometry; type: cell-based, human
Protocol: as §1
HEK293 and NK92 cells in RPMI 1640 media (Mediatech, Inc., Manassas, Va.) were activated with 15 ng/ml and 100 ng/ml, respectively, PMA for 30 minutes at 37° C. NK92 cells were activated with IL-12 (PeproTech Inc, Rocky Hill, N.J.) and IL-18 (R&D Systems, Inc., Minneapolis, Minn.) at 100 ng/ml and 400 ng/ml, respectively, for the indicated time points. NK92 cell activation through CD16a was mediated by their incubation with the CD20-positive Burkitt's lymphoma cell line Raji (ATCC, grown according to the depository's instructions) (1:1 ratio) treated with the anti-CD20 mAb rituximab (1 μg/ml) (Genentech, Inc., South San Francisco, Calif.), as described previously (Romee et al., 2013, Blood 121:3599-3608). Excess rituximab was removed by washing the Raji cells. In some experiments, NK92 cells were pre-incubated for 30 minutes with the selective ADAM17 inhibitor BMS566394 (5 μM) (Bristol-Myers Squibb Company, Princeton, N.J.). […]
as §2, with “Minn.). Human L-selectin was detected by the mAb LAM1-116 (Ancell Corp., Stillwater, Minn.).” for “Minn.).”

[1] = NK92 cells incubated with Raji cells alone
[2] = NK92 cells incubated with Raji cells treated with rituximab

| Substance | cell surface expression of CD16a after stimulation (iPSC-derived NK cells) | monomeric IgA binding (control) (monomeric human IgG) | ADAM17 cell surface levels (ADAM17) | up-regulation of CD107a (NK92 cells; [1]) | up-regulation of CD107a (NK92 cells; [2]) |
| --- | --- | --- | --- | --- | --- |
| CD16a/S197P: Human CD16a (FcγRIIIa, SEQ ID NO:1) with serine-197 substituted by proline in the membrane proximal cleavage region; expressed recombinantly in cells | remained stable | essentially background levels | identical cell surface levels | marginally up-regulated | considerable up-regulation |
| CD16a: Wild-type human IgG Fc receptor CD16a (FcγRIIIa), valine allelic variant, recombinant comparator [reference compound] | marked down-regulation | essentially background levels | identical cell surface levels | marginally up-regulated | considerable up-regulation |
